# Assay results published in ChEMBL document CHEMBL1201862, “PubChem BioAssay data set” (2004).
# Active and inactive are the calls of the source.
# What was measured:
# H4 = experiment: Luminescence Cell-Based Dose Response HTS to Identify Activators of 5'UTR Stem-Loop Driven Prion Protein mRNA Translation in H4 Neuroglioblastoma Cells. [Related pubchem assays: 1829 (Project Summary), 1814 (Primary HTS)]; assay type: functional; conditions: Homo sapiens
# [1] = biological target: Aryl hydrocarbon receptor (Homo sapiens, UniProt P35869); experiment: Luminescence-based cell-based high throughput dose response assay for activators of the Aryl Hydrocarbon Receptor (AHR). [Related pubchem assays: 2796 (Primary screen (AHR activators in singlicate)), 2845 (Confirmation screen (AHR activators in triplicate)), 434939 (Counterscreen (PXR activators in triplicate)), 2804 (Summary (AHR activators))]; assay type: ADME
# Chain of Aryl hydrocarbon receptor (P35869 whole entry): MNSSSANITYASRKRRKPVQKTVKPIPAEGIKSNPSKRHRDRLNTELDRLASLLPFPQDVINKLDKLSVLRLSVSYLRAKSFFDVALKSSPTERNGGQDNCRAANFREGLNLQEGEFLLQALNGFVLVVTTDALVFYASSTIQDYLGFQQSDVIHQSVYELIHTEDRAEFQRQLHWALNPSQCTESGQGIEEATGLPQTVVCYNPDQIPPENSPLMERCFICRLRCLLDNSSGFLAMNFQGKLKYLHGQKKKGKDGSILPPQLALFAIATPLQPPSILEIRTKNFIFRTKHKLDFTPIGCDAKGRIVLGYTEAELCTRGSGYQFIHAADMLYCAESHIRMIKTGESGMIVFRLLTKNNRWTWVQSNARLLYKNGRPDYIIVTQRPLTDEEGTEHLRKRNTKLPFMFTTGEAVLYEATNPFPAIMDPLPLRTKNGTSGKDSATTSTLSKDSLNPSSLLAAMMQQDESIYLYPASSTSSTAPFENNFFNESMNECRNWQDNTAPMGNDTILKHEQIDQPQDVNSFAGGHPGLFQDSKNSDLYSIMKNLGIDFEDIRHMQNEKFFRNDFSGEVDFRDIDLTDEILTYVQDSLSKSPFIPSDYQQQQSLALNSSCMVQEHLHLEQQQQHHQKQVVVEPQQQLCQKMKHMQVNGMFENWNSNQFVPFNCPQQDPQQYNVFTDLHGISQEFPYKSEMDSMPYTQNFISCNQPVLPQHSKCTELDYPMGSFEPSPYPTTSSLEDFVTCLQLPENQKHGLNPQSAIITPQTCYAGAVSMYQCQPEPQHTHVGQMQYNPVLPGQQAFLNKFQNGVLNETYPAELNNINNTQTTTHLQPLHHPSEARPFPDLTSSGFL
# [2] = Luminescence Cell-Based Dose Response HTS to Identify Activators of Luciferase Translation or Activity in H4 […] Cells. [Related pubchem assays: 1829 (Project Summary), 1814 (Primary HTS)]; assay type: functional
# [3] = microbe, parasite or virus in culture; assay type: functional; conditions: Mycobacterium tuberculosis
# cells = assay type: functional
# [4] = inhibitors of Bluetongue virus cytopathic effect, confirmation, arbovirus, BSR cells (AID 1250); assay type: functional;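 note: protection from viral cytopathic effect measured as cell viability by ATP luminescence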
# [5] = biological target: Lytic switch protein BZLF1 (Epstein-Barr virus (strain B95-8) (HHV-4) (Human herpesvirus 4), UniProt P03206); experiment: EBV ZTA inhibitors, dose response, counter-screen for EBNA-1 inhibitor project, biochemical, fluorescence polarization, Epstein-Barr virus, 1536-well (AID 2377); design: species or system human gammaherpesvirus 4;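 note: fluorescence polarization of Cy5-labelled ZRE DNA probe bound by purified Zta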
# Chain of Lytic switch protein BZLF1 (P03206 whole entry): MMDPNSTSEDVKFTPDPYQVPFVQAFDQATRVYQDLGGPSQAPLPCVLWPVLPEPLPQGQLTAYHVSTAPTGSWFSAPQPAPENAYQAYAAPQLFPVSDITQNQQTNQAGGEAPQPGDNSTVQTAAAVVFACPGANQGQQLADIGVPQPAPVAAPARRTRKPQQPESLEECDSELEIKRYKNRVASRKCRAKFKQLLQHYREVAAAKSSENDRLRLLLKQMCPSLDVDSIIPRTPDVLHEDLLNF
# [6] = biological target: Epstein-Barr nuclear antigen 1 (Epstein-Barr virus (strain B95-8) (HHV-4) (Human herpesvirus 4), UniProt P03211); experiment: EBNA-1 inhibitors, dose response, biochemical, fluorescence polarization, 1536-well (AID 2381); design: species or system human gammaherpesvirus 4;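 note: fluorescence polarization of a Cy5 DNA probe bound by EBNA-1 protein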
# Chain of Epstein-Barr nuclear antigen 1 (P03211 whole entry): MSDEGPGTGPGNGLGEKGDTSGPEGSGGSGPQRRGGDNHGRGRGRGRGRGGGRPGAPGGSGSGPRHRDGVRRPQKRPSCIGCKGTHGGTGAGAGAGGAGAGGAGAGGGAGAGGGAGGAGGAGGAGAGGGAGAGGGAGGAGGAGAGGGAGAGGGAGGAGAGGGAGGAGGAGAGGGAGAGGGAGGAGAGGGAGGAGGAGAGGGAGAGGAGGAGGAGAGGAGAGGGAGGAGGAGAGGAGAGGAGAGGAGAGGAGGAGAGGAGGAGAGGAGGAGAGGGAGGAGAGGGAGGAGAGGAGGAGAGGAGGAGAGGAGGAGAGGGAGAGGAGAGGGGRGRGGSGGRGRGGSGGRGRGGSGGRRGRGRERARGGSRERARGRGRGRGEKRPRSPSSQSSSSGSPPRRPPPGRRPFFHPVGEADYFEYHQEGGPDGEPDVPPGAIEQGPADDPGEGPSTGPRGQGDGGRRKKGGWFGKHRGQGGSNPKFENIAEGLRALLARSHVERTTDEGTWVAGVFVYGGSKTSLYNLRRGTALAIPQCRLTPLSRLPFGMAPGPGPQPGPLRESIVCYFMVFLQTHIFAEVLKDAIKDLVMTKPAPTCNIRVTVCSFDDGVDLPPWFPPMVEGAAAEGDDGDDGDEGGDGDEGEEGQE
# [7] = M. tuberculosis H37Rv growth inhibitors, H37Rv strain (AID 1626); assay type: functional
# [8] = biological target: Sphingosine 1-phosphate receptor 2 (Homo sapiens, UniProt O95136); experiment: Dose Response Cell Based Assay for Antagonists of the S1P2 Receptor. [Related pubchem assays: 856, 736 ]; assay type: functional
# Chain of Sphingosine 1-phosphate receptor 2 (O95136 whole entry): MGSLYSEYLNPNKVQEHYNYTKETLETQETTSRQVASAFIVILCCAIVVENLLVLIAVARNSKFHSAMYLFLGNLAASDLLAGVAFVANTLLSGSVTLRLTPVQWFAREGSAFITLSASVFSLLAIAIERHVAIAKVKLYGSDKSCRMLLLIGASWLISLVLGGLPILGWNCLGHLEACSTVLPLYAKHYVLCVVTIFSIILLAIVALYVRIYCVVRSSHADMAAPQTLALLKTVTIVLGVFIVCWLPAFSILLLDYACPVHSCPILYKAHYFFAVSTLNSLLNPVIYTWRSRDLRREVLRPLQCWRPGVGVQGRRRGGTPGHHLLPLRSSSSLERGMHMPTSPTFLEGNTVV
# Aminopeptidase N = biological target: T1, Aminopeptidase N (Plasmodium falciparum FcB1/Columbia, UniProt O96935); experiment: P. falciparum M1AAP inhibitors, biochemical, fluorogenic H-Leu-NHMec substrate, 1536-well (AID 1445); design: species or system Plasmodium falciparum 3D7, 3D7
# T1 sequence (O96935 whole entry): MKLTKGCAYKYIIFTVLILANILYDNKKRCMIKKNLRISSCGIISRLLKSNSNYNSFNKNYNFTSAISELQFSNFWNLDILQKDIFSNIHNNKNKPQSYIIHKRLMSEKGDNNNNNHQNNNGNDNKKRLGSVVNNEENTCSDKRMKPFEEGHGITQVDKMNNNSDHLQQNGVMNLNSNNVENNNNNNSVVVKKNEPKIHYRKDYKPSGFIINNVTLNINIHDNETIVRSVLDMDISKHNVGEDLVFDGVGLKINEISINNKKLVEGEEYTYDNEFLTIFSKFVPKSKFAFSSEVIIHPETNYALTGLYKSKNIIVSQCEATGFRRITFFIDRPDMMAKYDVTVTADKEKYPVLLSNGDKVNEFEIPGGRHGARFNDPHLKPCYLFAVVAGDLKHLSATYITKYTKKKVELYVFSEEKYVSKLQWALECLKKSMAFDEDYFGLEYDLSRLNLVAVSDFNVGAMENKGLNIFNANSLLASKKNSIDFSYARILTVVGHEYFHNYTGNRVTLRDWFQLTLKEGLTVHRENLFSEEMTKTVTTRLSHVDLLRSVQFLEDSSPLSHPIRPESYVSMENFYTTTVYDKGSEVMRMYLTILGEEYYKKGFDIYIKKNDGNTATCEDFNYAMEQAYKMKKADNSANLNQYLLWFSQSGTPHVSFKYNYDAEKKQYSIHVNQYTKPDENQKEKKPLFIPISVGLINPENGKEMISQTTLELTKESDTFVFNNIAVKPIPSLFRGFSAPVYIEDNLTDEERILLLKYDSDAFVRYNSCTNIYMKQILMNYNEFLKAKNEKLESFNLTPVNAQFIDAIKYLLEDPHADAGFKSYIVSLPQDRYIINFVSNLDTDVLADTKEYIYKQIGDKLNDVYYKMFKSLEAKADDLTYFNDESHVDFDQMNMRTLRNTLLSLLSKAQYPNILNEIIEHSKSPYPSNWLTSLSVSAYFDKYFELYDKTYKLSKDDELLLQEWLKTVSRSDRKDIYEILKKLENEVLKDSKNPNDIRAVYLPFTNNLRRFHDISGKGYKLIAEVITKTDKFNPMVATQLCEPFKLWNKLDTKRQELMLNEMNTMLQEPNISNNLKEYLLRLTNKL
# Leucine aminopeptidase = biological target: T2, Leucine aminopeptidase (Plasmodium falciparum 3D7, UniProt Q8IL11); experiment: P. falciparum M17LAP inhibitors, primary screen, biochemical, fluorogenic H-Leu-NHMec substrate, 1536-well (AID 1619); assay type: functional
# T2 sequence (Q8IL11 whole entry): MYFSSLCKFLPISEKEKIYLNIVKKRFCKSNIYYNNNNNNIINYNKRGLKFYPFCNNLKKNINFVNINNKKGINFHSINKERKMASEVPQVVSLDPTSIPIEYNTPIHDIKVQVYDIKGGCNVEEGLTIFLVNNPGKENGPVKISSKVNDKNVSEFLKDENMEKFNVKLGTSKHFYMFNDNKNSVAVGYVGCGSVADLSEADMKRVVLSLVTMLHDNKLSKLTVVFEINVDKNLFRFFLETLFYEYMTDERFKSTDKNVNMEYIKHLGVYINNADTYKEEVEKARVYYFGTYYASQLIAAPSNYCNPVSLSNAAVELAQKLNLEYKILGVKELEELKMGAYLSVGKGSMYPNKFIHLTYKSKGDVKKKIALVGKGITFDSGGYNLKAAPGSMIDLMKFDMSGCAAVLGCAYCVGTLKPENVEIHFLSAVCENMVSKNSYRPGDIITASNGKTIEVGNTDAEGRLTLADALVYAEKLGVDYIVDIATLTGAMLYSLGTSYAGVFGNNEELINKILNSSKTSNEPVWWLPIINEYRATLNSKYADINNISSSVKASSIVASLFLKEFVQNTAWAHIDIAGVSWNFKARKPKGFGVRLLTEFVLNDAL
smiles,measurement,setting,value
O=C(NC1CCCC1)c1cc2c(ccc3ccccc32)o1,EC50,H4,24.1 µM (active)
same,EC50,[1],2.8 µM (active)
same,EC50,[2],1.94 µM (active)
O=[N+]([O-])c1cnc(Nc2ccc(Cl)cn2)c([N+](=O)[O-])c1,CC50,[3],> 40 µM (active)
same,IC50,cells,4.17 µM (active)
same,EC50,[1],1.29 µM (active)
Cc1nc2c(c3c1[nH]c1ccccc13)C(O)CC(C)(C)C2 (stereo unspecified),IC50,[4],21.9 µM (active)
COc1ccc(-n2c(SCC(=O)NCC3CCCO3)nc3c4ccccc4nc-3c2O)cc1 (stereo unspecified),IC50,[5],> 111 µM (not active)
same,IC50,[6],9.89 µM (active)
O=C(Nc1ccccc1Cl)Oc1ccc2ccccc2c1,IC50,[7],> 100 µM (active)
COc1ccc(Cn2cccc(NC(=O)Nc3cccc(C#N)c3)c2=O)cc1,IC50,[5],> 111 µM (not active)
same,IC50,[6],9.07 µM (active)
NC(=O)c1sc2cc(C(F)(F)F)cnc2c1-c1cccs1,IC50,[8],> 30 µM (not active)
CC(C)S(=O)(=O)C1=NSC2=NC(=O)/C(=C\c3ccc(-c4ccccc4)o3)C(=N)N21,IC50,[4],27.1 µM (active)
same,IC50,Aminopeptidase N,45.6 µM (active)
same,IC50,Leucine aminopeptidase,12.6 µM (active)
